We go through 1 compound from paper PMC5461267, “Membrane Guanylate Cyclase catalytic Subdomain: Structure and Linkage with Calcium Sensors and Bicarbonate” (Frontiers in Molecular Neuroscience, 2017).

Changes are numbered by the printed parent chain.

In experiment [1] the target is T1, ROS-GC1 (rod outer segment guanylate cyclase type 1), full-length recombinant (Bos taurus, UniProt P55203, A1013R/D934A).
T1 construct: gene GUCY2D
T1 sequence (P55203 57-1110 D934A/A1013R): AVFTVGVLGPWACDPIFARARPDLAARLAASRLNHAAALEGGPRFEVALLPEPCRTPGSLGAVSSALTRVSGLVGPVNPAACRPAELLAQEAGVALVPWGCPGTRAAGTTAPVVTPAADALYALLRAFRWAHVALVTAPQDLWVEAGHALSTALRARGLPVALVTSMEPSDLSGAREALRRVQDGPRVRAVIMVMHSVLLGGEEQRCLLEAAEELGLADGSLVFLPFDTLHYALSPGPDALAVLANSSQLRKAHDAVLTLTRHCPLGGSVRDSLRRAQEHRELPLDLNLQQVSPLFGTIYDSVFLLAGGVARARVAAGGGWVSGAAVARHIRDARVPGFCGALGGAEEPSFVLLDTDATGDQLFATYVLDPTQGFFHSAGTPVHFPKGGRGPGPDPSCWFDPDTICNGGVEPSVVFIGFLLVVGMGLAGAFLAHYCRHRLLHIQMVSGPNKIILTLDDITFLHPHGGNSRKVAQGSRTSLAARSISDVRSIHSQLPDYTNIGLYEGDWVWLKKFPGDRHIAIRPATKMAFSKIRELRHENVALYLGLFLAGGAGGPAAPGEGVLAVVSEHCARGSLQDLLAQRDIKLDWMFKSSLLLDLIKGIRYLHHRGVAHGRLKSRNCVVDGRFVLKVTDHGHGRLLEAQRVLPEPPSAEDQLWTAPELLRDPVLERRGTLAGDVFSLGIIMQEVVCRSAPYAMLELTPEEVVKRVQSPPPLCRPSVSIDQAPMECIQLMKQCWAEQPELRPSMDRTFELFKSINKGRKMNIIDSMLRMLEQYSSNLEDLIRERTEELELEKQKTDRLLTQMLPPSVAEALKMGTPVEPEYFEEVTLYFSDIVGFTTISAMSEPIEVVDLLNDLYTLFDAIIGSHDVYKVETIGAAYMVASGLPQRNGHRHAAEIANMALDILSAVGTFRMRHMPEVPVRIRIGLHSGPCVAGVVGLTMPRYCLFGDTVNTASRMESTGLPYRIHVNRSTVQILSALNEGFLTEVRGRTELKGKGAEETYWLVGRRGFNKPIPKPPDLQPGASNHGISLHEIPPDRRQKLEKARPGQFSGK
Nature of the experiment: biochemical.

The target in experiment [2] is T2, ROS-GC1 (rod outer segment guanylate cyclase type 1), full-length recombinant (Bos taurus, UniProt P55203, A1013R).
T2 construct: gene GUCY2D
T2 sequence (P55203 57-1110 A1013R): T1 sequence (P55203 57-1110 D934A/A1013R) with A878D
In words: biochemical.

For the compound `O=C(O)O` [bicarbonate], the values for the EC50 in experiment [1] and in experiment [2] were roughly 30 mM and 25 mM, respectively.
